Laboratory results from patent publication US20260124311A1, “POLYMER-DRUG CONJUGATES FOR STING PATHWAY ACTIVATION” (Vanderbilt University, priority 2022, published 2026).
Where two headings read alike, the source gives them in different places.

Columns and labels:
[1] = test system: E0771 murine breast tumors; assay: Therapeutic efficacy in E0771 murine breast tumor model; settings: approximately 0.009 μmol drug/mouse every 4 days, 3 treatments
[2] = E0771 tumor bearing mice, approximately 0.012 μmol diABZI/mouse, organs after 24 hours
STING [3] = molecular target: T1, STING (Homo sapiens, UniProt Q86WV6, G230A/H232R/R293Q/R71H); assay: THP1-Dual reporter assay (IRF-luciferase, Quanti-Luc) for activation of STING; type: cell-based; settings: for STING activation / interferon production in THP-1 Dual reporter cells, in words: qualitative comparison of dose-response curves
T1 construct: host or cells: THP1-Dual cells
Method: Activation of STING. […] Cells were subjected to 10 μg/mL Blasticidin and 100 μg/mL Zeocin for continual selection after every cell passage. […] Reporter cells were seeded at 25,000 cells/well in 100 μL media and treatments were administered in 100 μL of medium.

IRF and NF-kb pathway = assay: THP-1 Dual reporter assay of IRF and NF-kb pathway activation; type: cell-based, human; settings: FIG. 19A-B
Method: Activation of STING. THP1-Dual cells (InvivoGen) were cultured in Roswell Park Memorial Institute (RPMI) 1640 Medium (Gibco) supplemented with 2 mM L-glutamine, 25 mM HEPES, 10% heat-inactivated fetal bovine serum (HI-FBS; Gibco), 100 U mL^−1, penicillin/100 μg mL^−1, streptomycin (Gibco), and 100 μg/mL Normocin. Cells were subjected to 10 μg/mL Blasticidin and 100 μg/mL Zeocin for continual selection after every cell passage. 96-well plates (REF 655180; Greiner Bio-One) were used for screening agonist activity. Reporter cells were seeded at 25,000 cells/well in 100 μL media and treatments were administered in 100 μL of medium. Results were collected 24 hours after treatment using a Quanti-Luc™ (InvivoGen) assay on cell supernatants following manufacturer's instructions. Luminescence was quantified using a plate reader (Synergy H1 Multi-Mode Microplate Reader; Biotek) after supernatants were transferred to opaque-bottom 96-well plates (REF 655073; Greiner Bio-One).

[4] = test system: STING knockout THP1 Dual cell line; assay: STING knockout THP1 Dual cell line reporter assay; type: cell-based, human; settings: FIG. 19C-D
[5] = molecular target: T2, Recombinant Mouse Cathepsin B (Mus musculus, UniProt P10605); assay: Cathepsin-B release / enzyme cleavability assay with MALDI-MS; type: biochemical; settings: 50 μM substrate, 0.2 μM cathepsin B
T2 construct: purchased RND Systems
Method: Enzyme Cleavability Studies. Recombinant Mouse Cathepsin B (RND Systems) was prepared at 50 μM in MES buffer (pH 5.0) upon opening and kept in −80° C. conditions when not in use. To activate the enzyme, Cathepsin B was diluted to 0.2 μM in MES buffer (pH 5.0) containing 1 mM EDTA and 2 mM DTT and placed at 37° C. for 15 minutes. After activation, Cathepsin B was combined with 50 μM of substrate at 37° C. for 37 hours at a total volume of 100 μL. Activity was determined by observing molecular weight shifts in the substrate using matrix assisted laser desorption and ionization mass spectrometry (MALDI-MS). 4 μL of Matrix (20 mg mL^−1 THAP and 20 mg mL^−1 CHCA in dry acetone) was combined with 1 μL of sample from the Cathepsin B activity assay and spotted on a stainless steel MALDI-MS plate (Bruker). After evaporation of matrix, three technical replicates were collected for each spot using FlexControl software (Bruker Daltonics) on a Bruker AutoFlex MALDI-TOF. The laser pulse rate was 1000 Hz and spectra were obtained with a mass window of 600-5000 m/z at high resolution (4.00 GS/s). FlexAnalysis software (Bruker Daltonics) was used to perform unbiased smoothing and obtain baseline spectra for all samples. Spectra were exported to Microsoft Excel and spectra were plotted using MATLAB.

[6] = molecular target: T3, recombinant human STING (hSTING; STING isoform 1) (Homo sapiens, UniProt Q86WV6); assay: Isothermal calorimetry (ITC) binding to recombinant human STING
T3 construct: made in house; host or cells: Escherichia coli (New England Biolabs, T7 Shuffle Express line)
Method: hSTING Binding Studies. […] Buffer exchange was performed prior to ITC (pH 7.5: PBST, 150 mM NaCl, 3 mM EDTA, 0.05% Tween 20), using Amicon Ultra 4 mL centrifugal filters (Millipore, Etobicoke, Canada). ITC experiments were performed on a TA Instruments Affinity ITC instrument. 24 total injections were performed using the following instrument settings: cell temperature 25° C., reference power 10 μCal/second, initial delay 240 seconds, stirring speed 75 rpm, feedback mode/gain high, and injection volume 2 μL for 10 seconds spaced at 120 second intervals with a filter period of 10 seconds. hSTING was set in the cell at a concentration of 10 μM and a volume of 350 μL. […] Data were analyzed using TA Instruments NanoAnalyze Software.

STING [7] = molecular target: T4, STING (Mus musculus, UniProt Q3TBT3); assay: Interferon-β sandwich ELISA on isolated primary murine splenocytes; type: cell-based
T4 construct: from tissue; host or cells: primary splenocytes from spleens of female C57BL/6 mice
T4 sequence (Q3TBT3 1-378): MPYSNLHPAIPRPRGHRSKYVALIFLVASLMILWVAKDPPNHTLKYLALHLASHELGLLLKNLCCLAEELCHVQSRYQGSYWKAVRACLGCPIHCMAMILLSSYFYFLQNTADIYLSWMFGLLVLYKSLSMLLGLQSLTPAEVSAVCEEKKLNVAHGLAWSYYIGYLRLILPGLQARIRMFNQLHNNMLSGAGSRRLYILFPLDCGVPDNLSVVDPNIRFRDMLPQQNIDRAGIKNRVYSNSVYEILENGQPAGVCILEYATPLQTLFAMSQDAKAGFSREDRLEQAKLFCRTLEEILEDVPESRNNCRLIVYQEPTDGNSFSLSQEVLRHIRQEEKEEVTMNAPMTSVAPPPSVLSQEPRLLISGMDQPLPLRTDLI
Method: The activity in primary murine splenocytes, which comprises a mixture of different immune cell populations, using ELISA was used to quantify secreted interferon-β (IFN-β), a signature cytokine of STING pathway activity.
Secretion of Interferon-β (IFN-β) ELISA. […] Cells were centrifuged and resuspended in fresh media at a concentration of 3 million cells per mL. Cells were seeded in a 96-well round bottom plate at 100 μL per well and treatments were administered in 100 μL of medium.

B16.F10 melanoma = settings: intravenous, every 3 days, 3 treatments, 0.035 umol diABZI/mouse
Method: Tumor volume was measured until day 18 when the first tumor reached 1500 mm^3 (FIG. 9E).

THP-1 Dual cells = assay: Cellular uptake by flow cytometry at 37° C. and 4° C.; type: cell-based, human; settings: FIG. 22A-B
Excerpt: To confirm the dependence of cellular uptake on endocytosis, a RAFT polymerization was used to synthesize a fluorescent version of 50 kDa DMA-diABZI (36) in which a small amount of azide propyl methacrylamide (2%) was co-polymerized to allow for covalent conjugation to DBCO-Sulfo-Cy5 dye, yielding compound (37), which had 2 Sulfo-Cy5 molecules per chain. […] Therefore, DMA-diABZI appears to cells via endocytosis where it can activate STING signaling within ˜2 hr.

[8] = FIG. 5, IRF signaling at 24 hours, read-out: EC50, STING activation in THP-1 Dual reporter cell lines
[9] = Table 2, FIG. 18A, IRF signaling in THP-1 Dual reporter cells, read-out: EC50 value
[10] = FIG. 3A, 24 hours, read-out: estimated EC50, IRF signaling in THP1-Dual reporter cells
[11] = FIG. 3B, 24 hours, read-out: EC50, IFN-β production in primary murine splenocytes (ELISA)

T3 sequence (Q86WV6 whole entry H232R, canonical isoform): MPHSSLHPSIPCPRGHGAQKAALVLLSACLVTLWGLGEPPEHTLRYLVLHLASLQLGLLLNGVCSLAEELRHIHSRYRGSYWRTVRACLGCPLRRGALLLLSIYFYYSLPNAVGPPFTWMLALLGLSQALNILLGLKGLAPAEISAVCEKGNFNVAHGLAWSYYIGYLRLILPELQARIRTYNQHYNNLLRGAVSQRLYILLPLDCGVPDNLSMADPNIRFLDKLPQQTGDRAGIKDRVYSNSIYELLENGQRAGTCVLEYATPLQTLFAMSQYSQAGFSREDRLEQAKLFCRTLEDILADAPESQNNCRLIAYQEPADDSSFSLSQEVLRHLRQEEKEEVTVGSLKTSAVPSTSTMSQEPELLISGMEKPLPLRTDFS
T1 sequence (Q86WV6 whole entry R71H/G230A/H232R/R293Q): as the sequence (Q86WV6 whole entry H232R, canonical isoform) above, with R71H, G230A, R293Q counted along it
T2 sequence (P10605 80-333 limits assumed): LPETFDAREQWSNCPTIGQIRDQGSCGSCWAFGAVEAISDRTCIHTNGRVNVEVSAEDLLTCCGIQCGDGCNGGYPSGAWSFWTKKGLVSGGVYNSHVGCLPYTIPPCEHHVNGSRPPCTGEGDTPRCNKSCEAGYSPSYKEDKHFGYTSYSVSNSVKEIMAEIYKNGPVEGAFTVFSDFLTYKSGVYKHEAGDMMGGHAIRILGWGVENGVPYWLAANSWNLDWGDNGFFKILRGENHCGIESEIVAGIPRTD

Compound: 25 kDa-poly(dimethylacrylamide-co-azidethylmethacrylate)-graft-diamidobenzimidazole) [25 kDa DMA-g-V/C-diABZI (28)]
- survival [1]: longer than the control and non-polymer conjugated compound
- treated mice with complete tumor regression [1]: approximately 20%
- organ accumulation (biodistribution) [2]: accumulation in the kidney, tumor, and liver

Compound: 100 kDa-poly(dimethylacrylamide-co-azidethylmethacrylate)-graft-diamidobenzimidazole) [100 kDa DMA-g-V/C-diABZI (29)]
- survival [1]: longer than the control and non-polymer conjugated compound
- treated mice with complete tumor regression [1]: ~37.5%
- organ accumulation (biodistribution) [2]: accumulation mainly in the liver and tumor

Compound: C#CCOC(=O)Nc1ccc(COC(=O)NCCCOc2cc(C(N)=O)cc3nc(NC(=O)c4cc(C)nn4CC)n(C/C=C/Cn4c(NC(=O)c5cc(C)nn5CC)nc5cc(C(N)=O)cc(OC)c54)c23)cc1 [Alkyne-PAB-diABZI (4), Alkyne-PAB-diABZI]
- STING activation / interferon production in THP-1 Dual reporter cells, in words (STING [3]): decrease in STING activation

Compound: CCn1nc(C)cc1C(=O)Nc1nc2cc(C(N)=O)cc(OC)c2n1C/C=C/Cn1c(NC(=O)c2cc(C)nn2CC)nc2cc(C(N)=O)cc(OCCCNC(=O)CCCCC(=O)N3Cc4ccccc4C#Cc4ccccc43)c21 [diABZI-DBCO (8), diABZI-DBCO]
- STING activation / interferon production in THP-1 Dual reporter cells, in words (STING [3]): elicit STING activation

Compound: CCSC(=S)SC(C)(C#N)CCC(=O)NCCCOc1cc(C(N)=O)cc2nc(NC(=O)c3cc(C)nn3CC)n(C/C=C/Cn3c(NC(=O)c4cc(C)nn4CC)nc4cc(C(N)=O)cc(OC)c43)c12 (centres unmarked) [diABZI-ECT (10), diABZI-ECT]
- IRF and NF-kb pathway activation (IRF and NF-kb pathway): both signaling pathways are engaged
- IRF and NF-κβ responses in STING knockout cells [4]: lack of activity
- EC50 (STING [3]; [8]): 3.06 nM
- EC50 (STING [3]; [9]): 7.21 nM
- STING activation / interferon production in THP-1 Dual reporter cells, in words (STING [3]): significantly more potent than diABZI-amine (1)
- STING activation / interferon production in THP-1 Dual reporter cells, in words (STING [3]; listed as 10): nearly identical STING activation

Compound: CCn1nc(C)cc1C(=O)Nc1nc2cc(C(N)=O)cc(OC)c2n1C/C=C/Cn1c(NC(=O)c2cc(C)nn2CC)nc2cc(C(N)=O)cc(OCCCNC(=O)CCCCCN3C(=O)C=CC3=O)c21 [diABZI-Mal (2), diABZI-Mal]
- EC50 (STING [3]; [10]): 20.5 nM
- cathepsin B cleavage (molecular weight shift by MALDI-MS) [5]: no change in molecular weight
- Kd [6]: 890 ± 547 nM
- EC50 (STING [7]; [11]): ~3.62 nM

Compound: CCSC(=S)SC(C)(C#N)CCC(=O)NCCSSCCC(=O)NCCCOc1cc(C(N)=O)cc2nc(NC(=O)c3cc(C)nn3CC)n(C/C=C/Cn3c(NC(=O)c4cc(C)nn4CC)nc4cc(C(N)=O)cc(OC)c43)c12 (centres unmarked) [diABZI-SS-ECT (11), diABZI-SS-ECT]
- EC50 (STING [3]; [8]): 4.09 nM
- STING activation / interferon production in THP-1 Dual reporter cells, in words (STING [3]): significantly more potent than diABZI-amine (1)

Compound: CCn1nc(C)cc1C(=O)Nc1nc2cc(C(N)=O)cc(OC)c2n1C/C=C/Cn1c(NC(=O)c2cc(C)nn2CC)nc2cc(C(N)=O)cc(OCCCNC(=O)OCc3ccc(NC(=O)[C@H](CCCNC(N)=O)NC(=O)[C@@H](NC(=O)CCCCC(=O)N4Cc5ccccc5C#Cc5ccccc54)C(C)C)cc3)c21 [diABZI-V/C-DBCO (9), diABZI-V/C-DBCO]
- STING activation / interferon production in THP-1 Dual reporter cells, in words (STING [3]): elicit STING activation

Compound: CCn1nc(C)cc1C(=O)Nc1nc2cc(C(N)=O)cc(OC)c2n1C/C=C/Cn1c(NC(=O)c2cc(C)nn2CC)nc2cc(C(N)=O)cc(OCCCNC(=O)OCc3ccc(NC(=O)[C@H](CCCNC(N)=O)NC(=O)[C@@H](NC(=O)CCCCCN4C(=O)C=CC4=O)C(C)C)cc3)c21 [diABZI-V/C-Mal (3), diABZI-V/C-Mal]
- EC50 (STING [3]; [10]): 314 nM
- cathepsin B cleavage (molecular weight shift by MALDI-MS) [5]: shift in molecular weight from 1400.8 Da to 801.83 Da
- Kd [6]: 207 ± 150 nM
- EC50 (STING [7]; [11]): ~3.38 nM

Compound: CCn1nc(C)cc1C(=O)Nc1nc2cc(C(N)=O)cc(OC)c2n1C/C=C/Cn1c(NC(=O)c2cc(C)nn2CC)nc2cc(C(N)=O)cc(OCCCN)c21 [diABZI-amine (1), (E)-7-(3-aminopropoxy)-1-(4-(5-carbamoyl-2-(1-ethyl-3-methyl-1H-pyrazole-5-carboxamido)-7-methoxy-1H-benzo[d]imidazol-1-yl)but-2-en-1-yl)-2-(1-ethyl-3-methyl-1H-pyrazole-5-carboxamido)-1H-benzo[d]imidazole-5-carboxamide]
- tumor growth inhibition (B16.F10 melanoma): inhibited tumor growth to a comparable degree
- EC50 (STING [3]; [10]): 60.9 nM
- EC50 (STING [3]; [9]): 78.6 nM
- Kd [6]: 70 ± 62 nM
- EC50 (STING [7]): ~2.24 nM

Compound: C=C(C)C(=O)OCCSSCCC(=O)NCCCOc1cc(C(N)=O)cc2nc(NC(=O)c3cc(C)nn3CC)n(C/C=C/Cn3c(NC(=O)c4cc(C)nn4CC)nc4cc(C(N)=O)cc(OC)c43)c12 [diABZI-disulfide-methacrylate (15), diABZI-disulfide-methacrylate]
- STING activation / interferon production in THP-1 Dual reporter cells, in words (STING [3]): nearly identical STING activation

Compound: C=C(C)C(=O)OCCCCCC(=O)NCCCOc1cc(C(N)=O)cc2nc(NC(=O)c3cc(C)nn3CC)n(C/C=C/Cn3c(NC(=O)c4cc(C)nn4CC)nc4cc(C(N)=O)cc(OC)c43)c12 [diABZI-methacrylate (14), diABZI-methacrylate]
- STING activation / interferon production in THP-1 Dual reporter cells, in words (STING [3]): nearly identical STING activation

Compound: diABZI(CTA)-SS-poly-DMA (50k) [50 kDa diABZI-SS-DMA (35)]
- STING activation / interferon production in THP-1 Dual reporter cells, in words (STING [3]): activated STING in a similar range as the stably linked constructs

Compound: diABZI-5k PEG [diABZI-5k PEG (17)]
- STING activation / interferon production in THP-1 Dual reporter cells, in words (STING [3]): slightly higher activity

Compound: diABZI-20k PEG [diABZI-20k PEG (18)]
- tumor growth inhibition (B16.F10 melanoma): inhibited tumor growth to a comparable degree
- STING activation / interferon production in THP-1 Dual reporter cells, in words (STING [3]): slightly higher activity

Compound: diABZI-DMA-co-AzPMA-Sulfo-Cy5 [sCy5-labeled DMA-diABZI (37)]
- cellular uptake at 4° C. versus 37° C. (THP-1 Dual cells): nearly completely abrogated

Compound: diABZI-V/C-2k PEG [diABZI-V/C-2k PEG (19)]
- STING activation / interferon production in THP-1 Dual reporter cells, in words (STING [3]): active

Compound: diABZI-V/C-5k PEG [diABZI-V/C-5k PEG (20)]
- STING activation / interferon production in THP-1 Dual reporter cells, in words (STING [3]): active

Compound: diABZI-V/C-20k PEG [diABZI-V/C-20k PEG (21)]
- tumor growth inhibition (B16.F10 melanoma): inhibited tumor growth to a comparable degree
- STING activation / interferon production in THP-1 Dual reporter cells, in words (STING [3]): active
